In test [1] the target is human catalytic domain HDAC4 protein (amino acids 648-1032) (Homo sapiens (Human), UniProt P56524). Nature of the test: Inhibition of HDAC4 catalytic domain enzymatic activity, fluorogenic substrate Boc-Lys(Tfa)-AMC. The conditions noted are these: HDAC4 catalytic domain enzyme, read-out: Biochemical HDAC4 IC50.
The test system of test [2] is cellular histone deacetylase enzymatic activity in Jurkat E6-1 cells. The test can be described thus: Inhibition of cellular HDAC activity in Jurkat E6-1 cells, fluorogenic substrate Boc-Lys(Tfa)-AMC. It counts as cell-based. The following applies: Homo sapiens, read-out: Cell IC50. In outline:
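Jurkat E6.1 cells (75,000/well) were pre-treated with compound for 2 h at 37 °C, then given Boc-Lys(Tfa)-AMC (5× stock 500 μM) for 3 h. Cells were lysed with trypsin-containing buffer overnight, and released AMC fluorescence was read at Ex 355/Em 460 nm over a 16-point dilution series.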

Sequence of human catalytic domain HDAC4 protein (amino acids 648-1032) (P56524 648-1032): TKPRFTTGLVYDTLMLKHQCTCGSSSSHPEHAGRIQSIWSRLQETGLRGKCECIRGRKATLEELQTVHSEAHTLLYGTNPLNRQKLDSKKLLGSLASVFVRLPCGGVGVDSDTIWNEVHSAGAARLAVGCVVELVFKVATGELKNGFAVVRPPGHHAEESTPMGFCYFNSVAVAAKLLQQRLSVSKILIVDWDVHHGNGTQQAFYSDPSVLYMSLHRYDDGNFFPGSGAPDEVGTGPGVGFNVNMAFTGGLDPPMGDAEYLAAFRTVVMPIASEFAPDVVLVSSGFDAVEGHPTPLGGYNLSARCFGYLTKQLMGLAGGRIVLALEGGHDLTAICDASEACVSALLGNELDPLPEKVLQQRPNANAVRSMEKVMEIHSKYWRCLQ

As for `Cc1c(F)cccc1[C@]1(C(=O)NO)CC[C@H](c2ccc3nc(C4CC4)sc3c2)C1` (relative stereo) [Example 77, (1 S,3S*)-3-(2-cyclopropylbenzo[d]thiazol-6-yl)-1-(3-fluoro-2-methylphenyl)-N-hydroxycyclopentanecarboxamide], the values for the IC50 in test [1] and in test [2] were 310 nM and 420 nM, respectively.
Regarding `Cc1c(F)cccc1[C@]1(C(=O)NO)CC[C@@H](c2ccc3nc(C4CC4)sc3c2)C1` (relative stereo) [Example 78, (1 S,3R*)-3-(2-cyclopropylbenzo[d]thiazol-6-yl)-1-(3-fluoro-2-methylphenyl)-N-hydroxycyclopentanecarboxamide], the IC50 in test [1] stood at 340 nM; in test [2] it was 420 nM.
Consider `Cc1c(F)cccc1[C@]1(C(=O)NO)CC[C@H](c2ccc3cnn(C)c3c2F)C1` (relative stereo) [Example 82, (1S,3S*)-3-(7-Fluoro-1-methyl-1H-indazol-6-yl)-1-(3-fluoro-2-methylphenyl)-N-hydroxycyclopentanecarboxamide], for which the IC50 in test [1] was determined as 110 nM; in test [2] it was 250 nM.
Consider `Cc1c(F)cccc1[C@]1(C(=O)NO)CC[C@@H](c2ccc3cnn(C)c3c2F)C1` (relative stereo) [Example 83, (1S,3R*)-3-(7-Fluoro-1-methyl-1H-indazol-6-yl)-1-(3-fluoro-2-methylphenyl)-N-hydroxycyclopentanecarboxamide], for which the figures for the IC50 in test [1] and in test [2] were 55 nM and 59 nM, respectively.
`Cc1c(F)cccc1[C@]1(C(=O)NO)CC[C@H](c2ccc3ncccc3c2)C1` (relative stereo) [Example 84, (1S,3S*)-1-(3-Fluoro-2-methylphenyl)-N-hydroxy-3-(quinolin-6-yl)cyclopentanecarboxamide]: the IC50 turned out to be 48 nM in test [1] and 180 nM in test [2].
For `Cc1c(F)cccc1[C@]1(C(=O)NO)CC[C@@H](c2ccc3ncccc3c2)C1` (relative stereo) [Example 85, (1 S,3R*)-1-(3-Fluoro-2-methylphenyl)-N-hydroxy-3-(quinolin-6-yl)cyclopentanecarboxamide] the same measures were 62 nM and 120 nM.
Turning to `Cc1c(F)cccc1[C@]1(C(=O)NO)CC[C@@H](N2CCOCC2)C1` (relative stereo) [Example 89, (1S,3R*)-1-(3-fluoro-2-methylphenyl)-N-hydroxy-3-morpholinocyclopentanecarboxamide], the IC50 was determined as 1100 nM in test [1] and 7300 nM in test [2].
With `Cc1c(F)cccc1[C@]1(C(=O)NO)CC[C@H](N2CCOCC2)C1` (relative stereo) [Example 90, (1S,3S*)-1-(3-Fluoro-2-methylphenyl)-N-hydroxy-3-morpholinocyclopentanecarboxamide], the concentration for half-maximal inhibition (IC50) in test [1] was determined as 2500 nM; in test [2], 24000 nM.
`Cc1c(F)cccc1[C@]1(C(=O)NO)CC[C@H](c2cncc(F)c2)C1` (stereo in doubt) [Example 9, (1S,3S*)-1-(3-fluoro-2-methyl-phenyl)-3-(5-fluoropyridin-3-yl)-N-hydroxycyclopentanecarboxamide]: the IC50 amounted to 150 nM in test [1] and 1280 nM in test [2].
Regarding `Cc1c(F)cccc1[C@]1(C(=O)NO)CC[C@@H](c2cncc(F)c2)C1` (stereo in doubt) [Example 10, (1S,3R*)-1-(3-fluoro-2-methyl-phenyl)-3-(5-fluoropyridin-3-yl)-N-hydroxycyclopentanecarboxamide], the IC50 turned out to be 140 nM in test [1] and 1390 nM in test [2].
Turning to `Cc1c(F)cccc1[C@@]1(C(=O)NO)CC[C@H](c2cncc(F)c2)C1` (stereo in doubt) [Example 39, (1R,3S*)-1-(3-fluoro-2-methylphenyl)-3-(5-fluoropyridin-3-yl)-N-hydroxycyclopentanecarboxamide], the IC50 in test [1] turned out to be 720 nM; in test [2], 8400 nM.

Values taken from patent US9783488B2 (CHDI Foundation, Inc., priority 2013, dated 2017).
